Measurements reported in US5157019A, “Serine protease inhibitors” (Monsanto Company, priority 1991, dated 1992).
Bridge positions count the residues as written; N and C are the ends. Ends that are not written are not given here.

Legend:
Assay type in all cases: biochemical
HUMAN SPUTUM ELASTASE = target: T1, HUMAN SPUTUM ELASTASE (Homo sapiens, UniProt P08246); experiment: Elastase assay (MeO-Suc-Ala-Pro-Val-pNA); details: 200 μM peptide
T1 construct: HUMAN SPUTUM ELASTASE; purchased Elastin Products Company SE563; host or cells: human sputum (from the product name)
T1 sequence (P08246 30-267): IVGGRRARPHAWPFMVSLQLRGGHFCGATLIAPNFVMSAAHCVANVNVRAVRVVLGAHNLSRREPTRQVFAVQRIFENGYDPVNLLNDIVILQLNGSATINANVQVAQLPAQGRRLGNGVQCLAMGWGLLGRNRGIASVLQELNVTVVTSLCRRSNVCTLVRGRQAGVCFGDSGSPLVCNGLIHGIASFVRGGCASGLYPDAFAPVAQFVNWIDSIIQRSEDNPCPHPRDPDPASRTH
Procedure: Enzyme used is "HUMAN SPUTUM ELASTASE®" which is an enzyme which is the target protease for α1 antitrypsin from Elastin Products Company, Catalog No. SE563, lot 85071, 875 units/mg as determined by supplier with N-Suc-Ala-Ala-Ala-pNA; prepared at 0.2 mg/mL in 0.1M Tris·HCl, pH 8.8 at 37 degrees C. An amount of enzyme is used to give approximately 0.1 change in Absorbance/min; which in this assay was 1 μg.
The substrate is MeO-Suc-Ala-Pro-Val-pNA, Sigma Catalog No. M-4765. About 50 mg of the substrate is dissolved in 1 ml of 1-methyl-2-pyrrolidinone and diluted to 33 mls. with 0.1M Tris-HCl, pH 7.5, containing 0.5M NaCl, and 0.01 wt % sodium azide.
Peptide solutions are prepared at 500 μM, using 1.5% of the final volume of DMSO first and diluting with distilled water (DW) or 0.1M Tris.HCl, pH 8.8 at 37 degrees C. [formula]

Cathepsin G = target: T2, Cathepsin G (Homo sapiens, UniProt P08311); experiment: Cathepsin G assay (Suc-Ala-Ala-Pro-Phe-pNA, 410 nm); details: 200 μM peptide (head of Table IX)
T2 construct: purchased Elastin Products Company (EPC) SG-45
T2 sequence (P08311 21-255): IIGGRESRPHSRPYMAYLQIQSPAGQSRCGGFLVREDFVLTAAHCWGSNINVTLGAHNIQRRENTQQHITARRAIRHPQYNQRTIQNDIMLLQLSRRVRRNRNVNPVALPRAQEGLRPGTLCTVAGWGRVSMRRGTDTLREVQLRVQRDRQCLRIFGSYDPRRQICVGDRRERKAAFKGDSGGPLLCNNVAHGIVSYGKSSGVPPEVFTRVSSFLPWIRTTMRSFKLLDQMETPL
Procedure: Reference: Elastin Products Company (EPC) technical data sheet, cathepsin G, No. SG-45.
Method: Spectrophotometric rate determination
A) Buffer; 0.1M Tris, pH 7.5 at 25° C.
B) Substrate; 60 mM Suc-Ala-Ala-Pro-Phe-pNA obtained from Sigma Chemical Company. Solution prepared by dissolving 50 mg substrate in 1.3 ml of 1-methyl-2-pyrrolidinone. Stored at 5° C.
C) Peptide Inhibitors; 200 μM HCl salt. Depending on peptide solubility, dissolved in buffer or DMSO and then buffer added for a final concentration of 10% DMSO.
D) Enzyme; Cathepsin G, EPC SG-45, lot 85117 used for all assays, 0.0077 mg protein per mg solid determined by supplier by Bradford method. Enzyme was dissolved in buffer at a concentration of approx. 5 mg/ml solid. Solution stored on ice, used within 2 hours.
Pipetted the following into semi-micro quartz cuvettes: 0.3 ml buffer, 0.15 ml peptide solution and 0.5 ml of substrate solution. Equilibrate for 5 min. at 25° C., then add 0.05 ml of enzyme solution and monitor the release of pNA spectrophotometrically at 410 nm for at least 3 minutes. The controls contain either 0.45 ml of buffer or 20% DMSO in buffer (for a final concentration of 10% DMSO).
The rate (O.D./min) is obtained as an average over 3 minutes. [formula]

Thrombin = Thrombin (Homo sapiens, UniProt P00734); experiment: Coagulation inhibition assay, thrombin (fibrinogen clotting end point); details: 40 μM peptide
Procedure: Inhibitory activity of subject peptides toward thrombin and Factor Xa were done in the following manner. Mix 100 μL Thrombin (3.125 units/ml, 1.125 μg/ml) in TAB with […] Peptide in TAB and incubate for 1 minute at 37° C. Add 50 μL Fibrinogen (2 mg/ml)and measure clotting end point (in seconds) in a Fibrometer (BBL) TAB=Thrombin Assay Buffer: 0.15M NaCl, 6.6 gm/L PEG-6000, 0.01M Imidazole, 0.01 CaCl2, pH 7.4

tPA = target: T3, tPA (Homo sapiens, UniProt P00750); experiment: Tissue plasminogen activator (tPA) assay (S2288); details: 20 μM peptide
T3 construct: Enzyme tPA, 2 chain activity standard; purchased American Diagnostica, Inc. 116
T3 sequence (P00750 311-562 limits assumed): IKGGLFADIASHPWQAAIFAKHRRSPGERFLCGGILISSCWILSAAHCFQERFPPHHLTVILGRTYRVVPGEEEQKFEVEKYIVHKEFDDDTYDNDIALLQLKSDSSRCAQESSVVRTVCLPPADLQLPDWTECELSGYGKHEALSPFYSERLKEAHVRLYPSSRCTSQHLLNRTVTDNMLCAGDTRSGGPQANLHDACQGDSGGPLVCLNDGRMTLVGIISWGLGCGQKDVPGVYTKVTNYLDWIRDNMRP
T3 sequence (P00750 36-310 partner limits assumed): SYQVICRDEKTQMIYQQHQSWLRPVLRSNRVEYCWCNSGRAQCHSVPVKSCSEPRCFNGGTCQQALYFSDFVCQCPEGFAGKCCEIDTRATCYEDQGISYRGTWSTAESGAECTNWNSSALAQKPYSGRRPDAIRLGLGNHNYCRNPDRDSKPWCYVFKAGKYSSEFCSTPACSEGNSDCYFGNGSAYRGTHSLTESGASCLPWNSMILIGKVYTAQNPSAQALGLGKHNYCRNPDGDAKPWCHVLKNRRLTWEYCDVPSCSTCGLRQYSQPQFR
Procedure: Substrate H-D-Ile-Pro-Arg-pNA·2HCl (S2288, Kabi), 10 mM in deionized water; may be frozen for future use.
Buffer 50 mM Tris·HCl, pH 7.4 containing 0.01% Tween 80.
Inhibitor […] in deionized water.
Enzyme tPA, 2 chain activity standard (Catalog #116, American Diagnostica, Inc.); stock solution=10 μL of original solution per mL in buffer.
Mix 200 μL of buffer, 200 μL of deionized water (control) or inhibitor solution and 40 μL of substrate solution. Incubate for 2 min. at 37° C., add 40 μL of enzyme, mix, and measure rate spectrophotometrically at 405 nm for about 5 min. Inhibition (%) is calculated in the same manner as in previous assays.

C1s = target: T4, C1s (Homo sapiens, UniProt P09871); experiment: C1s assay by inhibition of fluid phase C4 activation; details: Table X; μM concentration at which protease was inhibited 50%; read-out: IC50 C1S
T4 construct: prepared from pooled human plasma; from tissue; host or cells: pooled human plasma
T4 sequence (P09871 16-688): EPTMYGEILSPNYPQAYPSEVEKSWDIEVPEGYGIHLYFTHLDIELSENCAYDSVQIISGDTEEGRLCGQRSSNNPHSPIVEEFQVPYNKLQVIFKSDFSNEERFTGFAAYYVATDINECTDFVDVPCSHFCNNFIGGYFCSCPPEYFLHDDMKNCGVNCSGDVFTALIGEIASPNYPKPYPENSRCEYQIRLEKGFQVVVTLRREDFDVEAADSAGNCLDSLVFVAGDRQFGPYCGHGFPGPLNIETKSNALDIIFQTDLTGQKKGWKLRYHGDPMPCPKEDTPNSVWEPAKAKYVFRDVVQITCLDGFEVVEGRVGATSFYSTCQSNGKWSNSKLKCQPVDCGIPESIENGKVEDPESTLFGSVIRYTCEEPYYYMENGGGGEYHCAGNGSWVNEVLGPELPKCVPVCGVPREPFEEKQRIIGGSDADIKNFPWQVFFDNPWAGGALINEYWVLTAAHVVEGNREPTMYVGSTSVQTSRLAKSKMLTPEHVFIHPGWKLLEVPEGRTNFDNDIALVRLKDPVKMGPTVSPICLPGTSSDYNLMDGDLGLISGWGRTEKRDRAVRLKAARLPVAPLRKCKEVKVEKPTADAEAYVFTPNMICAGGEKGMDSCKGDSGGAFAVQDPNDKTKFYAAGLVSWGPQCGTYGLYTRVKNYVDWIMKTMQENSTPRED
Procedure: (§1) Highly purified C3, C4, Factor D, Factor B, and C1s were prepared from pooled human plasma. Factors B and C4 were radiolabeled by periodate oxidation of sialic acid residues, followed by reduction with tritiated sodium borohydride. In a representative experiment, a solution of 1.2 mg of factor B in 1.8 ml of PBS was treated with 70 μl of 0.1M NaIO4. After 10 min incubation on ice, excess reagent was removed by filtration over "SEPHADEX®" which is a matrix for gel chromatography (1.0 cm×20 cm). To the protein pool was added 60 μl of NaB[^3 H]4 solution and incubated for 30 min on ice. Labeled protein was separated from excess reagent by desalting or dialysis. Human C4 was radiolabeled in the same manner. Radiolabeled proteins were stored at -70° C. in PBS. The specific radioactivity of ^3 H factor B was about 10,000 CPM/μg and that of ^3 H-C4 was 5,000 CPM/μg.
The cleavage of C4 was studied by incubating 10 μg of tritiated C4 with 3-5 ng of C1s at 37° C. for 30 min in 100 μl of PBS (pH 7.10) containing different concentrations of inhibitor. The reaction was stopped by the addition of 2-mercaptoethanol. The extent of cleavage was analyzed by SDS-polyacrylamide gel electrophoresis. The stained bands corresponding to C4α and C4α' were cut out and sliced. The radioactivity of the fragments was measured by liquid scintillation counting. The percent cleavage of the reaction was calculated as follows: [formula]
(§2) Electrophoresis was carried out under reducing conditions in the Laemmli system using slab gel of 8% polyacrylamide. The gels were stained and destained (Fairbanks et al. Biochemistry (1971) 10:2606).
(§3) The percent inhibition of the reaction was calculated according to the following relationship: [formula]
(§4) A: % cleavage without inhibitor
(§5) B: % cleavage with inhibitor
(§6) The concentration inducing 50% inhibition was obtained by plotting the percent inhibition on a probability graph (National Blank Book Co., No. 12-083) on the ordinate and the log of the inhibitor concentration on the abscissa. From this graph, a 50% inhibition concentration IC50 was obtained and this value was employed to express the activity.

Factor D = target: T5, Factor D (Homo sapiens, UniProt P00746); experiment: Factor D assay by inhibition of fluid phase Factor B activation; details: Table X; μM concentration at which protease was inhibited 50%; read-out: IC50 D
T5 construct: prepared from pooled human plasma; from tissue; host or cells: pooled human plasma
T5 sequence (P00746 26-253): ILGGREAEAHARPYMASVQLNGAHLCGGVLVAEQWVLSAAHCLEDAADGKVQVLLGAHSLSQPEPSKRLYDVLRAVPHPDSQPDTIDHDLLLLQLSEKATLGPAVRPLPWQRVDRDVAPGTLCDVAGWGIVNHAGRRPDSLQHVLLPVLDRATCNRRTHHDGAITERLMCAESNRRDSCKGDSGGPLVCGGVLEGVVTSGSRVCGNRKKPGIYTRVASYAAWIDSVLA
Procedure: as §1
The effect of the peptides on Factor D-dependent cleavage of factor B was studied by incubating 3.5 μg of Factor B, 1.5 μg of C3(H2 O) and 0.2 μl of Factor D at 37° C. for 60 min in Mg-PBS containing different concentrations of inhibitor. Uncleaved Factor B and its fragments, Ba and Bb, were first separated by SDS-PAGE and analyzed as described above. The percent cleavage of the reaction was calculated as follows: [formula]
B=radioactivity (CPM) of uncleaved factor B
Bb=radioactivity (CPM) of fragment Bb
Ba=radioactivity (CPM) of fragment Ba
as §2, §3, §4, §5, §6

Row | Sequence | Elastase Inhibition (HUMAN SPUTUM ELASTASE) [%] | Cathepsin G Inhibition (Cathepsin G) [%] | also measured
1 | AGRSLNPNRTIVRFNRPFLLII [Peptide 11] | – | – | inhibition at 200 µM (HUMAN SPUTUM ELASTASE): 15%; inhibition at 200 µM (Cathepsin G): 40%; inhibition at 40 µM (Thrombin): 81%
2 | FLEAIPMSIPPEVKFNKPFVFLI [Peptide 4] | – | – | inhibition at 200 µM (HUMAN SPUTUM ELASTASE): 70%; inhibition at 200 µM (Cathepsin G): 14%
3 | FLEAIPMSIPPEVKFNKPFVFLLIEQNTKSPLFLGKVVNPTQK [Peptide 24] | 26 | 0 | –
4 | FLEAIPMSIPPIVRFNRPFLLII [Peptide 19] | 100 | – | –
5 | FLEAIPMSIPPIVRFNRPFLLIIVPTDTQNIFFLSKVTNPSKPR [Peptide 32] | 0 | 0 | –
6 | FLEAIPMSIPPRVTFKANRPFLVFIREVPLNTIIFLGRVANP [Peptide 28] | 0 | 16 | –
7 | FLEAIPMSIPPTFKANRPFLVFI [Peptide 8] | 77 | 44 | Thrombin inhibition (Thrombin): 30%
8 | FLEAIPMSIRTIVRFNRPFLLII [Peptide 12] | 0 | 51 | –
9 | IAGRSLNPNIVRFNRPFLLIIVPTDTQNIFFLSKVTNPSKPR [Peptide 31] | 0 | 54 | –
10 | IAGRSLNPNPPEVKFKNPFVFLI [Peptide 5] | 0 | 0 | –
11 | IAGRSLNPNRVTFKANRPFCVFIREVPLNTIIFLGCVANPAVK (disulfide 20-36) [Peptide 45] | – | – | inhibition at 20 µM (tPA): 69%
12 | IAGRSLNPNRVTLRYNKPFILVLFETPGNSLVFLGRISNPATK [Peptide 33] | 0 | 35 | –
13 | IAGRSLNPNRVTVKFNKPFVFLLIEQNTKSPLFLGKVVNPTQK [Peptide 25] | 0 | 35 | –
14 | IDGRIVEGSRVTFKANRPFLVFI [Peptide 18] | – | – | IC50 (C1s): 40 µM; IC50 (Factor D): 43 µM
